In US9453242B2, “Method and culture medium for preparing mammalian ovum or embryo in which zona pellucida has been thinned or eliminated, and method for fertilization using mammalian ovum prepared by same method” (NATIONAL UNIVERISTY CORPORATION KUMAMOTO UNIVERSITY, priority 2010, dated 2016):

Assays:
[1] = system: zona pellucida of a mouse unfertilized ovum; experiment: Swelling of zona pellucida (area in zona pellucida) of unfertilized ovum; format: cell-based; conditions: reducing agents other than glutathione; FIG. 10, FIG. 11 (DTT 0.5, ascorbic acid 5, epicatechin 1 mM)
Experimental: Further, the influence of glutathione on swelling of zona pellucida was confirmed. […] Preparation of ovum” were treated with HTF culture media containing glutathione at various concentration at 37° C. for 6 hours, then, the area in zona pellucida was photographed under a microscope and measured by an image analysis software. The conditions of zona pellucida at glutathione concentrations of 0 mM, 1 mM, 2 mM and 10 mM were observed by an invert microscope.
The influence of other reducing agents (DTT, ascorbic acid (VC) and epicatechin (EC)) exerted on thinning and swelling of zona pellucida was confirmed in the same manner as in Example 2. The extent of swelling of the zona pellucida of an unfertilized ovum by the concentration of each reducing agent was photographed under a microscope, and determined according to the following formula. % Relative area in ZP=(area of zona pellucida in each experiment/area of zona pellucida at 0 mM)×100

[2] = system: frozen sperms of C57BL/6J mice; experiment: In vitro fertilization after sperm pre-incubation with MBCD and/or glutathione; format: cell-based, mouse
Experimental: A sperm suspension is pre-incubated in 90 μl of a TYH culture medium at 37° C. for 30 minutes, and under a stereomicroscope, sperms showing motility are collected, avoiding nonmotile sperms, and used for fertilization. The pre-incubated sperm suspension (10 μl) is added to 90 μl of an HTF culture medium (±glutathione) into which cumulus-oocyte complexes (COCs) have been previously introduced (insemination), and these are co-incubated in an incubator for 5 to 6 hours (37° C., 5% CO2), thereby performing fertilization. Thereafter, the ovum is washed with drops of new HTF, and the ovum is observed. Those judged to parthenogenetic (only one pronucleus is recognized in ooplasm) are excluded, and on the following day (24 hours after insemination), only 2-cell stage embryos are selected, and fertilization rate is determined according to the following formula. In vitro fertilization rate (%)=(number of 2-cell stage embryo)/(number of 2-cell stage embryo+number of unfertilized ovum)×100
The TYH culture medium used for pre-incubation of sperms was prepared according to the above-described composition excepting that polyvinyl alcohol (1.0 mg/ml, available from SIGMA) was used instead of bovine serum albumin, and methyl-β-cyclodextrin (0.75 mM, available from SIGMA) was added. Further, the concentration of glutathione in the TYH culture medium was 1 mM, preparation was carried out in the same manner as in Example 1, and glutathione was added to the TYH culture medium directly before use. The influence on fertilization rate was compared among those containing methyl-β-cyclodextrin, those containing glutathione and those containing both compounds.
Fertilization was conducted with 90 μl of an HTF culture medium (in the case of addition of glutathione, the concentration was 1 mM) containing cumulus-oocyte complexes (COCs), in the same manner as in Example 1 (IVF/glutathione in table). As the sperm, frozen sperms of C57BL/6J mice were used, and processed according to FIG. 1. Thawed sperms were pre-incubated in a TYH culture medium (±glutathione, ±methyl-β-cyclodextrin) at 37° C. for 30 minutes, and sperms showing motility were collected and used for fertilization. The experiment was conducted five times.

Compound	thinning and swelling of zona pellucida [1]	number of 2-cell stage embryo(%) ([2]; sperm pre-incubation MBCD + (0.75 mM), glutathione −, IVF glutathione −)	number of 2-cell stage embryo ([2]; sperm pre-incubation MBCD + (0.75 mM), glutathione −, IVF glutathione −, 323 oocytes)	effect of sperm pre-incubation on fertilization rate ([2]; sperms pre-incubated with 1 mM glutathione or 0.75 mM MBCD, 37° C., 30 minutes)
O[C@@H](CS)[C@@H](O)CS [DTT]	thinning and swelling of zona pellucida by treatment with DTT were confirmed			
O=C1O[C@H]([C@@H](O)CO)C(O)=C1O [ascorbic acid]	thinning or swelling of zona pellucida did not occur			
methyl-β-cyclodextrin [MBCD]		65	210	fertilization rate was improved
